This note sets out measurements from patent US20260273011A1, “COMPOSITION COMPRISING STEWARTIA PSEUDOCAMELLIA EXTRACT AS ACTIVE INGREDIENT FOR PREVENTION OR TREATMENT OF DEMENTIA” (priority 2022, published 2026).

Where two headings read alike, the source gives them in different places. Ends that are not written are not given here.

Data set [1] relates to human neuroblastoma SH-SY5Y cells. The following applies: H2O2 50 μM, 24 hours.
Data set [2] has the same test system. The data set is described as follows: Human neuroblastoma SH-SY5Y cell toxicity (MTS). The format is cell-based. On the procedure: Neuronal cells (human neuroblastoma SH-SY5Y) were obtained from the Korean Cell Line Bank (KCLB, Seoul, Korea). The medium used was a minimum essential medium (SH30024.01, Cytiva, USA) containing 10% fetal bovine serum (FBS, Gibco, CA, USA) medium, 25 mM 4-(2-hydroxyethyl)-1-piperazine ethanesulfonic acid (HEPES), and 25 mM NaHCO3. The cells were cultured in an incubator controlled at 95% humidity, 5% CO2, and 37° C., and an antibiotic for the medium (penicillin-streptomycin, Gibco, CA, USA) was used to suppress microbial contamination or proliferation. When the cells covered about 80% of the dish, the dish was washed with phosphate-buffered saline-ethylenediaminetetraacetic acid (PBS-EDTA, Thermo Fisher Scientific, Massachusetts, USA), and then 1 ml of 0.05% trypsin-EDTA (Gibco, Thermo Fisher Scientific, Massachusetts, USA) was used to detach the cells attached to the bottom of the dish and subculture them. The medium was exchanged with fresh medium every 48 to 72 hours to culture the cells.
After removing the medium, 100 μl of the sample diluted with fresh medium was applied and allowed to react with the cells for 24 hours in an incubator at 95% humidity, 5% CO2, and 37° C.
In other words, 1 ml of the reagent was diluted with 9 ml of medium (DMEM high glucose, free FBS), and 100 μl of the mixture was added to each well.

The test system is the same in data set [3]. Kind of data set: Neuroprotective effect against H2O2 cytotoxicity (MTS). The format is cell-based. Particulars: 50 μM H2O2 treatment. On the procedure: After removing the medium, […], which has a cell viability of about 50%, was treated with fresh medium, and then 10 μl of the samples of Examples 1 to 4 and Comparative Example 1 were treated at each concentration, and the resulting mixtures were allowed to react at 95% humidity, 5% CO2, and 37° C. for 24 hours.

Another data set concerns SH-SY5Y cells. The data set is described as follows: ROS generation suppression ability in neurons (DCF-DA, H2O2). The following applies: ursolic acid 0.1 to 5 μg/ml. The class given is cell-based, human. On the procedure:
The generation of ROS is measured by the intensity of fluorescent material generation using 2′,7′-dichlorofluorescin diacetate (DCF-DA), and the principle is that 2′,7′-dichlorofluorescin (DCF) in a reduced or acetylated form releases a fluorescent material ([…]) when the acetate group is removed by the […] and ROS generated within cells.
SH-SY5Y cells were plated into a 96-well plate (100 μl) at a concentration of 5×10^4 cells/well and cultured for 24 hours. After the culture, the medium was removed, and the sample was treated at an appropriate concentration using a medium containing no serum and then cultured for 24 hours. After 24 hours, 100 μl of PBS was added and the resulting mixture was washed, and this process was repeated three times. DCF-DA dissolved in dimethyl sulfoxide (DMSO) was diluted to 20 μM (in PBS), and 100 μl of the diluted solution was added and incubated for 20 minutes. After adding 100 μl of 100 μM H2O2 (in PBS), the mixture was allowed to react for 30 minutes, and the fluorescence intensity was measured at 486 nm and 535 nm using an enzyme-linked immunosorbent assay (ELISA) reader.

In data set [4] the test system is human neuroblastoma SH-SY5Y cells. Kind of data set: Neuroprotective effect against Aβ-peptide 25-35 cytotoxicity (MTS). The class given is cell-based. Further details: dose or concentration left out as unconfirmed. Particulars: Aβ treatment. As for the experimental part: (§1) To measure the neuronal cell death concentration by Aβ 25-35, Aβ-protein fragment 25-35 (Sigma-Aldrich, A4559-1 MG) was purchased and used.
(§2) For the aggregation of Aβ, it was dissolved in distilled water and allowed to react at 37° C. for five days at 150 rpm.

The test system is the same in data set [5]. The data set is described as follows: Cell death concentration for Aβ-peptide 25-35 (MTS). The format is cell-based. The following applies: Aβ 20 μM, 24 hours. On the procedure:
as §1, §2

With `OO` [Example H2O2, Hydrogen peroxide], the cell viability entry in data set [1] was “approximately 50%”.
In the case of `C[C@H]1[C@H](C)CC[C@]2(C(=O)O)CC[C@]3(C)C(=CC[C@@H]4[C@@]5(C)CC[C@H](O)C(C)(C)[C@@H]5CC[C@]43C)[C@H]12` [ursolic acid], the “concentration at which toxicity on neurons was exhibited” value in data set [2] was not below 10000 ng/mL. Moreover, in data set [3], the “neuroprotective effect against H2O2 cytotoxicity” value is given as “high cell protection efficacy”. Moreover, the “ROS generation suppression ability” value in the data set on SH-SY5Y cells is given as “significant suppression activity”. Besides, the “neuroprotective effect against Aβ-peptide 25-35 cytotoxicity” value in data set [4] was “significant effect”.
Regarding “GSNKGAIIGLM [Aβ, Aβ-protein fragment 25-35]”, in data set [5], the cell viability result is listed as “approximately 50%”.
